From US20060234922A1, “Remedy for corneal failure” (priority 2002, published 2006)

Columns and labels:
Format in all cases: cell-based
[1] = test system: cultured rabbit trigeminal nerve cells; test: Effect of Octreotide on axon extension of cultured rabbit trigeminal nerve cells (anti-neurofilament 200 immunostaining, image analysis); conditions: Octreotide 10 μM final concentration, 24 hr culture
Excerpt: Effect of Octreotide on Axon Extension of Cultured Rabbit Trigeminal Nerve Cells (In Vitro Test)
(§1) Japanese White Rabbits (2-3 days old) purchased from Fukusaki Rabbit Warren were used.
Octreotide (SMS 201-995, American Peptide Company, Inc.) was used.
The cell culture: Trigeminal nerve cells were isolated by reference to the report of Chan et al. (Kuan Y. Chan and Richard H. Haschke. Exp. Eye Res. 41: 687-699, 1985). To be specific, under ether anesthesia, after cardiac perfusion of rabbit with saline, the trigeminal ganglia was removed, and dispersed in nerve dispersion solution (SUMITOMO BAKELITE Co., Ltd.). The cells were counted and innoculated in an 8 well culture slide (BECTON DICKINSON) coated with polylysine. The cell number was about 3×10^3 cells per well, and the culture conditions were 5% CO2, 95% air, 37° C. […] Immunostaining: At 24 hr from culture, the cells were fixed with 4% paraformaldehyde at room temperature for 2 hr, and nerve cell, axon and dendrite were fluorescence stained with anti-neurofilament 200 antibody (NF, Anti-Neurofilament 200, Sigma) specifically recognizing a neurofilament constituting the nerve cell and neurite. The images of the stained cells were imported into a computer from the fluorescence microscope, and the effect of Octreotide on the neurite formation and axon extension was evaluated using an image analysis soft (MacSCOP, MITANI CO.). […]

[2] = test system: cultured rabbit trigeminal nerve cells; test: Effect of somatostatin receptor agonist on axon extension of cultured rabbit trigeminal nerve cells (neurofilament absorbance at 492 nm, fluorescence microscopy); conditions: 48 hr culture; for absorbance indicating the neurofilament amount of the cells (492 nm): control group 0.798, n=3
Excerpt: Effect of Somatostatin Receptor Agonist on Axon Extension of Cultured Rabbit Trigeminal Nerve Cell (In Vitro Test)
Japanese White Rabbits (2-3 days old) purchased from KITAYAMA LABES Co., Ltd. were used.
As a somatostatin receptor agonist, which is a test substance, t-butyl 6-amino-2-(3-(1H-indol-3-yl)-2-((4-(2-oxo-2,3-dihydrobenzoimidazol-1-yl)piperidine-1-carbonyl)amino)propionylamino)hexanoate, which is an SSTR2 specific agonist (hereinafter to be referred to as compound 1), and 1-(3-(N-(5-bromopyridin-2-yl)-N-(3,4-dichlorobenzyl)amino)propyl)-3-(3-(1H-imidazol-4-yl)propyl)thiourea (hereinafter to be referred to as compound 2), which is an SSTR4 specific agonist, were used. The compound 1 was a compound of Example 4 and synthesized according to the method of Example 2 of JP-A-2001-519812 (WO98/44922). The compound 2 was synthesized according Example 15 of JP-A-2001-525793 (WO97/43278).
Rabbit trigeminal nerve cells were isolated by reference to the report of Chan et al. (Kuan Y. Chan and Richard H. Haschke. Exp. Eye Res. 41: 687-699, 1985). To be specific, under ether anesthesia, cardiac perfusion with saline was performed and trigeminal ganglia was removed. Using nerve dispersion solution (SUMITOMO BAKELITE Co., Ltd.), trigeminal ganglia was dispersed to prepare trigeminal nerve cells. For cell culture, Neurobasal medium (GIBCO) added with B27 Supplement (GIBCO; final concentration 2% v/v) and L-Glutamine (GIBCO; final concentration 1 mM) was used under the culture conditions of 5% CO2, 95% air, 100% humidity, 37° C., 48 hr. […]
After the completion of 48 hr culture, the cells innoculated on a 96 well plate were fixed with 4% paraformaldehyde and the neurofilament of the cell was labeled with anti-neurofilament 200 antibody (Sigma) specifically recognizing a neurofilament constituting nerve cell body and neurite and HRP conjugated goat anti-mouse IgG antibody (Wako Pure Chemical Industries, Ltd.). […] After the completion of coloring, the absorbance at 492 nm was measured and the measured value was taken as the amount of the stained neurofilament and used as an index for neuritogenesis (Taniwaki T., et al. Dev. Brain Res. (1995) 88, 109-166). The cells plated on an 8 well culture slide were fixed with 4% paraformaldehyde, a sample fixed with an anti-neurofilament 200 antibody (Sigma) was stained, and fluorescence labeled with Alexa Fluor 568 conjugated secondary antibody (Molecular probes). The fluorescence labeled cells were observed under a fluorescence microscope and the cell images were imported into a computer.

[3] = test system: cultured rabbit trigeminal nerve cells; test: Nerve axon extension promoting action in cultured rabbit trigeminal nerve cells (phase contrast microscopy); conditions: NGF 1 μg/mL final concentration, 48 hr culture, compared to non-addition group
Description: Nerve Axon Extension Promoting Action in Cultured Rabbit Trigeminal Nerve Cells (In Vitro Experiment)
as §1
As a test substance, somatostatin (manufactured by CALBIOCHEM, Lot B33795) and NGF (NGF-7S, manufactured by Sigma) were used. The test substance was dissolved in phosphate buffer (PBS) to 100 μM somatostatin, 20 μg/mL NGF-7S. The prepared reagents were preserved at −80° C. and dissolved before use.
The trigeminal nerve cell was isolated according to the report of Chan et al. (Kuan Y. Chan and Richard H. Haschke. Exp. Eye Res. 41: 687-699, 1985). To be specific, under ether anesthesia, after cardiac perfusion of rabbit with saline, the trigeminal ganglia was removed, trigeminal ganglia was dispersed using a nerve dispersion solution (SUMITOMO BAKELITE Co., Ltd.), and the cells were plated in a 24-well plate (SUMITOMO BAKELITE Co., Ltd.) coated with polylysine/laminin. The number of cells was about 3000 cells per well and the culture conditions were 5% CO2, 95% air at 37° C. […]
The effect on the formation of neurite and the axon extension from trigeminal nerve cell by somatostatin and NGF were morphologically evaluated by the observation using a phase contrast microscope.

C[C@@H](O)[C@@H]1NC(=O)[C@H](CCCCN)NC(=O)[C@@H](Cc2c[nH]c3ccccc23)NC(=O)[C@H](Cc2ccccc2)NC(=O)[C@@H](NC(=O)[C@H](N)Cc2ccccc2)CSSC[C@@H](C(=O)N[C@H](CO)[C@@H](C)O)NC1=O [Octreotide]
neuritogenic cells compared to the control cell group (fluorescence microscopic images) [1]: neuritogenic cells increased | proportion (%) of neuritogenic cell to the total cell number ([1]; control group about 21%, n=3, p<0.05): about 43%

CC(C)(C)OC(=O)C(CCCCN)NC(=O)C(Cc1c[nH]c2ccccc12)NC(=O)N1CCC(n2c(=O)[nH]c3ccccc32)CC1 (stereo not shown) [compound 1, t-butyl 6-amino-2-(3-(1H-indol-3-yl)-2-((4-(2-oxo-2,3-dihydrobenzoimidazol-1-yl)piperidine-1-carbonyl)amino)propionylamino)hexanoate]
neuritogenic cells compared with the control group (fluorescence microscopic images) ([2]; final concentration 1 μM): increase in the neuritogenic cells | absorbance indicating the neurofilament amount of the cells (492 nm) ([2]; final concentration 1 μM): 0.876

S=C(NCCCc1c[nH]cn1)NCCCN(Cc1ccc(Cl)c(Cl)c1)c1ccc(Br)cn1 [compound 2, 1-(3-(N-(5-bromopyridin-2-yl)-N-(3,4-dichlorobenzyl)amino)propyl)-3-(3-(1H-imidazol-4-yl)propyl)thiourea]
neuritogenic cells compared with the control group (fluorescence microscopic images) ([2]; final concentration 0.1 μM): increase in the neuritogenic cells | absorbance indicating the neurofilament amount of the cells (492 nm) ([2]; final concentration 0.1 μM): 0.850

B1: NGF: nerve growth factor (NGF-7S, manufactured by Sigma) (protein, UniProt P01139 122-241, looked up)
Beta-nerve growth factor: SSTHPVFHMGEFSVCDSVSVWVGDKTTATDIKGKEVTVLAEVNINNSVFRQYFFETKCRASNPVESGCRGIDSKHWNSYCTTTHTFVKALTTDEKQAAWRFIRIDTACVCVLSRKATRRG
modifications: 7S complex
formation of neurite and axon extension from trigeminal nerve cell, morphological evaluation [3]: clear nerve cell axon extension-promoting action was observed
